Assay results as given in patent US20240349725A1, “FORMULATION COMPRISING AN ACID FUNCTION ACTIVE INGREDIENT, ESTER FUNCTION ACTIVE INGREDIENT AND SALT AND/OR CHEMICALLY LABILE ACTIVE INGREDIENT, THE USE THEREOF AND METHOD OF PRODUCTION” (Iharabrás S.A. Indústrias Químicas, priority 2021, published 2024).

Experiment: In-house compatibility observations of the actives with acids / 2,4-D amine salt solution
Assay type: physicochemical
Text: Secondary amine salt formulations diethanolamine, diisopropanolamine) of 2,4-D and other herbicides containing a carboxylic acid function (2,4,5-T, ticlopyr, dicamba, picloram, aminopyralid, others) are extremely hydrophilic, being normally conveyed as a concentrated aqueous solution of high pH to avoid crystallization of the salt/free acid. […] As discussed, these active ingredients have physical-chemical features that make it difficult for them to be used together in the same formulation. In addition to this is the easy decomposition through base-catalyzed hydrolysis, of active ingredients containing the ester function, such as lactofen, if they were soluble or emulsified in an alkaline solution, as is the case of the aqueous solution of amine salts of 2,4-D. This effect was observed when lactofen was dissolved in a naphthenic organic solvent and then emulsified in a solution of 2,4-D dimethylamine salt. Shortly afterwards, lactofen had been decomposed even under mild temperature conditions, which made it impossible to provide this mixture under these conditions as a commercial product. It is also mentioned that, although the degradation kinetics may be different, compounds containing an ester group, such as lactofen, can also undergo solvolysis (hydrolysis if the solvent is water) in the presence of acids, which makes it impossible for lactofen to be transported with 2,4-D without neutralization of the latter by an alkaline compound. Bispyribac sodium is also a compound that easily degrades under different conditions. […] Bispyribac sodium is also known to only remain stable at pH levels close to neutral or slightly alkaline (7 to 9) and at temperatures around 25° C. and in the dark, with an acceleration of degradation under conditions other than these. These features of lactofen and bispyribac sodium make it difficult for one to develop formulations with other active ingredients, which may justify the absence of commercial products with these associated active ingredients.

| SMILES | degradation in the presence of acids (even in the absence of water, observed internally) | degradation in the presence of unneutralized 2,4-D (high acidity of 2,4-D) | decomposition when emulsified in a solution of 2,4-D dimethylamine salt (dissolved in naphthenic organic solvent, emulsified in 2,4-D dimethylamine salt solution, mild temperature) |
| --- | --- | --- | --- |
| COc1cc(OC)nc(Oc2cccc(Oc3nc(OC)cc(OC)n3)c2C(=O)O)n1 [Bispyribac sodium, bispyribac sodium] | degrades easily | fully degraded | – |
| CCOC(=O)C(C)OC(=O)c1cc(Oc2ccc(C(F)(F)F)cc2Cl)ccc1[N+](=O)[O-] (stereo not drawn) [Lactofen, lactofen] | – | – | decomposed |
